Experimental data as given in patent publication US9663496B2, “AMPK-activating heterocyclic compounds and methods for using the same” (Rigel Pharmaceuticals, Inc., priority 2010, dated 2017).

The compounds below were run against AMPK (assay: AMPK activation, enzyme-linked immunosorbent assay). Conditions: EC50 for AMPK activation, ELISA.
Type: biochemical
Summary of the method: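 Read-out: immunodetected kinase activation after compound exposure, run with commercial kit reagents.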
For O=C(Nc1ccc(-c2ccccc2)cc1)c1ccc(C(=O)NC2CCN(Cc3ccccc3)CC2)nc1 [Compound 105, N2-(1-benzylpiperidin-4-yl)-N5-(biphenyl-4-yl)pyridine-2,5-dicarboxamide], the EC50 was > 10000 nM. With COc1ccc(C(=O)C2CCN(C(=O)c3ccc(C(=O)Nc4ccc(Oc5ccc(C#N)cc5)cn4)cn3)CC2)cc1 [Compound 468, N-(5-(4-cyanophenoxy)pyridin-2-yl)-6-(4-(4-methoxybenzoyl)piperidine-1-carbonyl)nicotinamide] the EC50 was < 500 nM. With N#Cc1ccc(CN2CCC(NC(=O)c3ccc(C(=O)N4CCC(Oc5ccc(S(=O)(=O)C(F)(F)F)cc5)CC4)nc3)C(F)C2)cc1 (stereo in doubt) [Compound 451, N-((3S,4R)-1-(4-cyanobenzyl)-3-fluoropiperidin-4-yl)-6-(4-(4-(trifluoromethylsulfonyl)phenoxy)piperidine-1-carbonyl)nicotinamide] the EC50 was < 500 nM. N#Cc1ccc(CN2CCC(NC(=O)c3ccc(N4CCC(Oc5ccc(C#N)cc5)CC4)nn3)CC2)cc1 [Compound 351, N-(1-(4-cyanobenzyl)piperidin-4-yl)-6-(4-(4-cyanophenoxy)piperidin-1-yl)pyridazine-3-carboxamide] was tested, and the EC50 was < 500 nM. In the case of COc1ccc(N2CCC(Nc3ccc(C(=O)NC4CCN(Cc5ccc(C#N)cc5)CC4)nc3)CC2)cc1 [Compound 275, N-(1-(4-cyanobenzyl)piperidin-4-yl)-5-(1-(4-methoxyphenyl)piperidin-4-ylamino)picolinamide], the EC50 is reported as < 500 nM. In the case of COc1ccc(CN2CCC(NC(=O)c3ccc(C(=O)N4CCC(C(=O)c5ccc(F)cc5F)CC4)cn3)CC2)cc1 [Compound 331, 5-(4-(2,4-difluorobenzoyl)piperidine-1-carbonyl)-N-(1-(4-methoxybenzyl)piperidin-4-yl)picolinamide], the EC50 is reported as < 500 nM. In the case of O=C(NC1CCN(Cc2ccc(OC(F)(F)F)cc2)CC1)c1ccc(C(=O)N2CCC(Oc3ccc(S(=O)(=O)C4CC4)cc3)CC2)nc1 [Compound 249, 6-(4-(4-(cyclopropylsulfonyl)phenoxy)piperidine-1-carbonyl)-N-(1-(4-(trifluoromethoxy)benzyl)piperidin-4-yl)nicotinamide], the EC50 is reported as < 500 nM. With O=C(Nc1ccc(Oc2ccc(F)cc2)nc1)c1ccc(C(=O)N2CCC(Oc3ccc(F)cc3F)CC2)nc1 [Compound 343, 6-(4-(2,4-difluorophenoxy)piperidine-1-carbonyl)-N-(6-(4-fluorophenoxy)pyridin-3-yl)nicotinamide] the EC50 was < 500 nM. In the case of N#Cc1ccc(CN2CCC(NC(=O)c3ccc(C(=O)N4CCC(C(=O)c5ccc(N6CCCC6)cc5)CC4)nc3)CC2)cc1 [Compound 377, N-(1-(4-cyanobenzyl)piperidin-4-yl)-6-(4-(4-(pyrrolidin-1-yl)benzoyl)piperidine-1-carbonyl)nicotinamide], the EC50 is reported as < 500 nM. In the case of N#Cc1ccc(CN2CCC(NC(=O)c3ccc(C(=O)N4CCC(S(=O)(=O)c5ccc(F)cc5)CC4)cn3)CC2)cc1 [Compound 262, N-(1-(4-cyanobenzyl)piperidin-4-yl)-5-(4-(4-fluorophenylsulfonyl)piperidine-1-carbonyl)picolinamide], the EC50 is reported as < 500 nM. Compound COc1ccc(CN2CCC(NC(=O)c3ccc(C(=O)N4CCC(Oc5ccc(S(C)(=O)=O)cc5)CC4)nc3)CC2)cc1 [Compound 237, N-(1-(4-methoxybenzyl)piperidin-4-yl)-6-(4-(4-(methylsulfonyl)phenoxy)piperidine-1-carbonyl)nicotinamide] has an EC50 of 1000 to 5000 nM. N#Cc1ccc(CN2CCC(NC(=O)c3ccc(C(=O)N4CCN(Cc5ccncc5)CC4)cn3)CC2)cc1 [Compound 103, N-(1-(4-cyanobenzyl)piperidin-4-yl)-5-(4-(pyridin-4-ylmethyl)piperazine-1-carbonyl)picolinamide] was tested, and the EC50 was < 500 nM. With N#Cc1ccc(CN2CCC(NC(=O)c3ccc(C(=O)N4CC[C@H](Oc5ccc(F)cc5)C4)cn3)CC2)cc1 [Compound 270, (S)—N-(1-(4-cyanobenzyl)piperidin-4-yl)-5-(3-(4-fluorophenoxy)pyrrolidine-1-carbonyl)picolinamide] the EC50 was < 500 nM. In the case of O=C(NC1CCN(Cc2ccccc2)CC1)c1ccc(Nc2ccc(Oc3ccccc3)cc2)cn1 [Compound 113, N-(1-benzylpiperidin-4-yl)-5-(4-phenoxyphenylamino) picolinamide], the EC50 is reported as 1000 to 5000 nM. With O=C(Nc1ccc(Oc2ccc(F)cc2)nc1)c1ccc(C(=O)N2CCC(C(=O)c3ccc(F)cc3F)CC2)cn1 [Compound 342, 5-(4-(2,4-difluorobenzoyl)piperidine-1-carbonyl)-N-(6-(4-fluorophenoxy)pyridin-3-yl)picolinamide] the EC50 was < 500 nM. For C[S+]([O-])c1ccc(C(=O)C2CCN(C(=O)c3ccc(C(=O)NC4CC[N+]([O-])(Cc5ccc(C#N)cc5)CC4)nc3)CC2)cc1 (stereo not drawn) [Compound 374, 1-(4-cyanobenzyl)-4-(5-(4-(4-(methylsulfinyl)benzoyl)piperidine-1-carbonyl)picolinamido) piperidine 1-oxide], the EC50 was > 10000 nM. In the case of O=C(NC1CCN(C(=O)c2ccccc2)CC1)c1ccc(C(=O)N2CCN(Cc3ccc(F)cc3)CC2)cn1 [Compound 8, N-(1-(benzoyl)piperidin-4-yl)-5-(4-(4-fluorobenzyl)piperazine-1-carbonyl)picolinamide], the EC50 is reported as < 500 nM. With N#Cc1ccc(CN2CCC(NC(=O)c3ccc(C(=O)N4CCC(Oc5ccc(C#N)cc5)CC4)nc3)CC2)cc1 [Compound 323, N-(1-(4-cyanobenzyl)piperidin-4-yl)-6-(4-(4-cyanophenoxy)piperidine-1-carbonyl)nicotinamide] the EC50 was < 500 nM. With N#Cc1ccc(CC2CCN(C(=O)c3ccc(C(=O)NC4CCN(Cc5ccc(C#N)cc5)CC4)nc3)CC2)cc1 [Compound 128, N-(1-(4-cyanobenzyl)piperidin-4-yl)-5-(4-(4-cyanobenzyl)piperidine-1-carbonyl)picolinamide] the EC50 was < 500 nM. For COc1ccc(CN2CCC(NC(=O)c3ccc(C(=O)N4CCC(Oc5ccc(F)cc5)CC4)cn3)CC2)cc1 [Compound 161, 5-(4-(4-fluorophenoxy)piperidine-1-carbonyl)-N-(1-(4-methoxybenzyl)piperidin-4-yl)picolinamide], the EC50 was < 500 nM. In the case of O=C(Nc1cccc(-c2ccccc2)c1)c1ccc(C(=O)N2CCN(Cc3ccc(F)cc3)CC2)cn1 [Compound 12], the EC50 is reported as 5000 to 10000 nM. For N#Cc1ccc(CN2CCC(NC(=O)c3ccc(N4CCC(Oc5ccc(C(F)(F)F)cc5)CC4)cn3)CC2)cc1 [Compound 301, N-(1-(4-cyanobenzyl)piperidin-4-yl)-5-(4-(4-(trifluoromethyl)phenoxy)piperidin-1-yl)picolinamide], the EC50 was < 500 nM. N#Cc1ccc(OC2CCN(c3ccc(C(=O)N4CCN(Cc5ccc(F)cc5)CC4)cn3)CC2)cc1 [Compound 188, 4-(1-(5-(4-(4-fluorobenzyl)piperazine-1-carbonyl)pyridin-2-yl)piperidin-4-yloxy)benzonitrile] gave an EC50 of 500 to 1000 nM. For N#Cc1ccc(CN2CCC(NC(=O)c3ccc(C(=O)N4CCC(Oc5ccc(NC(=O)CCOCCOCCOCCOCCNC(=O)CCC[C@@H]6SC[C@@H]7NC(=O)N[C@@H]76)cc5)CC4)nc3)CC2)cc1 [Compound 371, N-(1-(4-cyanobenzyl)piperidin-4-yl)-6-(4-(4-(17-oxo-20-((3aS,4S,6aR)-2-oxohexahydro-1H-thieno[3,4-d]imidazol-4-yl)-4,7,10,13-tetraoxa-16-azaicosanamido)phenoxy)piperidine-1-carbonyl)nicotinamide], the EC50 was > 10000 nM. In the case of N#Cc1ccc(OC2CCN(C(=O)c3ccc(C(=O)N[C@H]4CC[C@@H](Oc5ccc(F)cc5)CC4)cn3)CC2)cc1 [Compound 324, 6-(4-(4-cyanophenoxy)piperidine-1-carbonyl)-N-((cis)-4-(4-fluorophenoxy)cyclohexyl)nicotinamide], the EC50 is reported as < 500 nM. O=C(NC1CCN(Cc2cc(F)cc(F)c2)CC1)c1ccc(C(=O)N2CCC(C(=O)c3ccc(F)c(F)c3)CC2)cn1 [Compound 298, 5-(4-(3,4-difluorobenzoyl)piperidine-1-carbonyl)-N-(1-(3,5-difluorobenzyl)piperidin-4-yl)picolinamide] was tested, and the EC50 was < 500 nM. For N#Cc1ccc(OC2CCN(C(=O)c3ccc(C(=O)Nc4ccc(Oc5ccc(F)cc5)nc4)cn3)CC2)cc1 [Compound 326, 6-(4-(4-cyanophenoxy)piperidine-1-carbonyl)-N-(6-(4-fluorophenoxy)pyridin-3-yl)nicotinamide], the EC50 was < 500 nM. For COc1ccc(CC2CCN(C(=O)c3ccc(C(=O)NC4CCN(Cc5ccc(C#N)cc5)CC4)nc3)CC2)cc1 [Compound 131, N-(1-(4-cyanobenzyl)piperidin-4-yl)-5-(4-(4-methoxybenzyl)piperidine-1-carbonyl)picolinamide], the EC50 was < 500 nM. In the case of O=C(NC1CCN(CC2CCCCC2)CC1)c1ccc(C(=O)N2CCN(Cc3ccc(F)cc3)CC2)cn1 [Compound 13, N-(1-(cyclohexylmethyl)piperidin-4-yl)-5-(4-(4-fluorobenzyl)piperazine-1-carbonyl)picolinamide], the EC50 is reported as 1000 to 5000 nM. With COc1ccc(C(=O)C2CCN(C(=O)c3cnc(C(=O)NC4CCN(Cc5ccc(C#N)cc5)CC4)cn3)CC2)cc1 [Compound 211, N-(1-(4-cyanobenzyl)piperidin-4-yl)-5-(4-(4-methoxybenzoyl)piperidine-1-carbonyl)pyrazine-2-carboxamide] the EC50 was < 500 nM. With O=C(NC1CCN(Cc2cc(F)cc(F)c2)CC1)c1ccc(C(=O)N2CC(OCc3ccc(F)cc3)C2)cn1 [Compound 308, N-(1-(3,5-difluorobenzyl)piperidin-4-yl)-5-(3-(4-fluorobenzyloxy)azetidine-1-carbonyl)picolinamide] the EC50 was < 500 nM. N#Cc1ccc(CN2CCC(NC(=O)c3ccc(C(=O)N4CCC(C(=O)c5ccc(F)cc5)CC4)cn3)CC2)cc1 [Compound 136, N-(1-(4-cyanobenzyl)piperidin-4-yl)-5-(4-(4-fluorobenzoyl)piperidine-1-carbonyl)picolinamide] was tested, and the EC50 was < 500 nM. O=C(NC1CCN(Cc2ccc(N3CCCC3)cc2)CC1)c1ccc(C(=O)N2CCC(Oc3ccc(F)cc3)CC2)cn1 [Compound 196, 5-(4-(4-fluorophenoxy)piperidine-1-carbonyl)-N-(1-(4-(pyrrolidin-1-yl)benzyl)piperidin-4-yl)picolinamide] was tested, and the EC50 was < 500 nM.
